Results taken from PMC4971072, “Chemically Homogenous Compounds with Antagonistic Properties at All α1-Adrenoceptor Subtypes but not β1-Adrenoceptor Attenuate Adrenaline-Induced Arrhythmia in Rats” (Frontiers in Pharmacology, 2016).
Counter-ions that a name gives are not always drawn. Marks after values point to notes of the source that are not given here.

How the values were obtained:
[1] = test system: blood pressure in normotensive rats; test: Influence on blood pressure in normotensive rats; assay type: in vivo, rat; design: Systolic pressure / Diastolic pressure: unit not given beside the values; conditions: for Diastolic pressure / Systolic pressure: anesthetized normotensive rats; for Diastolic pressure / Systolic pressure / reduction of diastolic blood pressure / reduction of systolic blood pressure: lowest hypotensive dose i.p.; for lowest hypotensive dose / reduction of diastolic blood pressure / reduction of systolic blood pressure: normotensive rats; for lowest hypotensive dose: lowest dose significantly lowering systolic and diastolic blood pressure; for reduction of diastolic blood pressure / reduction of systolic blood pressure: period of significant effect
Method: The tested compounds were administered i.p. after 15 min of stabilization period. The compounds were administered at the dose 10 mg/kg.

[2] = molecular target: T1, α1B-adrenoceptors (Mus musculus, UniProt P97717); test: Functional bioassay, isolated mouse spleen, noradrenaline contraction; assay type: biochemical; conditions: noradrenaline as agonist; for Kb: read-out: pA2 ± S.E.M., α1B (converted)
T1 construct: The spleen was removed from male mice; from tissue; host or cells: isolated mouse spleen
T1 sequence (P97717 1-514): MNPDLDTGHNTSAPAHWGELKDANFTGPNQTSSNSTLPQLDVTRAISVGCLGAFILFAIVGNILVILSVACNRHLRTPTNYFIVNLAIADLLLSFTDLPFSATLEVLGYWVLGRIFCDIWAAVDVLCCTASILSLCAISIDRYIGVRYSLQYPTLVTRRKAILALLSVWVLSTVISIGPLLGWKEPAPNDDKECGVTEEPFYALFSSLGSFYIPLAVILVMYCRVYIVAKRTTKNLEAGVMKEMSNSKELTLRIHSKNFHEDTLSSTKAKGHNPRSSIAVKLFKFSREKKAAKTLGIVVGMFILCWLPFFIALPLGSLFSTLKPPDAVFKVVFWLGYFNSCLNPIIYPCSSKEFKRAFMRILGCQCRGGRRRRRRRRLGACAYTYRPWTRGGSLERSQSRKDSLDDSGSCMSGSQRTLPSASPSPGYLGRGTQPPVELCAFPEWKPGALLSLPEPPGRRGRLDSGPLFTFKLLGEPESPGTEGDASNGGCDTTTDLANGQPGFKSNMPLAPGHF

[3] = test system: normal ECG in rats; test: The effect on normal electrocardiogram in rats; assay type: in vivo, rat; conditions: anesthetized rats; for influence on ECG parameters (PQ interval, QRS complex, QTc interval) / Beats/min (ECG) / PQ (ECG) / QRS (ECG) / QT (ECG) / QTc (ECG, Bazett): i.p. at ED84; for reduction of heart rate: i.p. at ED84, over the period of significant effect vs. initial values
Method: The experiment was carried out to exclude the influence of tested compounds on normal ECG. […] The influence on QRS complex, PQ interval, heart rate (RR), and QTc interval was determined.

[4] = test system: adrenaline-induced arrhythmia in rats; test: Therapeutic antiarrhythmic activity in adrenaline-induced arrhythmia; assay type: in vivo, rat; conditions: i.v. at ED84 at the peak of adrenaline-induced arrhythmia (20 μg/kg)
Method: The ECG was recorded constantly for 5 min as well as in the 10th and 15th min of the experiment.

[5] = Control (before administration)

COc1ccccc1N1CCN(CCCOc2c(C)cc(C)cc2C)CC1 [HBK-18, 1N-[3-(2,4,6-trimethylphenoxy)propyl]-4N-(2-methoxyphenyl)piperazine hydrochloride]
Diastolic pressure ([1]; 5 min): 90.7 ± 7.1
Systolic pressure ([1]; 5 min): 117.7 ± 9.1
Diastolic pressure ([1]; 10 min): 85.5 ± 7.5
Systolic pressure ([1]; 10 min): 112.7 ± 7.7
Diastolic pressure ([1]; 20 min): 79.5 ± 7.8^a
Systolic pressure ([1]; 20 min): 96.5 ± 8.9^b
Diastolic pressure ([1]; 30 min): 78.3 ± 7.2^a
Systolic pressure ([1]; 30 min): 93.8 ± 8.7^c
Diastolic pressure ([1]; 40 min): 78.8 ± 7.0^b
Systolic pressure ([1]; 40 min): 91.8 ± 10.0^b
Diastolic pressure ([1]; 50 min): 78.7 ± 5.6^c
Systolic pressure ([1]; 50 min): 90.7 ± 8.6^b
Diastolic pressure ([1]; 60 min): 77.5 ± 6.0^b
Systolic pressure ([1]; 60 min): 90.2 ± 9.2^a
Diastolic pressure [1, 5]: 94.3 ± 6.4
Systolic pressure [1, 5]: 125.7 ± 8.2
lowest hypotensive dose [1]: 0.01 mg/kg
reduction of diastolic blood pressure [1]: 16−18%
reduction of systolic blood pressure [1]: 23−28%
Schild slope ± S.E.M., α1B [2]: 1.03 ± 0.18
Kb [2]: 4.47 nM
influence on ECG parameters (PQ interval, QRS complex, QTc interval) [3]: did not affect PQ interval, QRS complex or QTc interval
reduction of heart rate [3]: 13−23%
Beats/min (ECG) ([3]; 0 min (initial values)): 328.0 ± 7.4 Beats/min
PQ (ECG) ([3]; 0 min (initial values)): 61.3 ± 4.6 ms
QRS (ECG) ([3]; 0 min (initial values)): 28.1 ± 3.1 ms
QT (ECG) ([3]; 0 min (initial values)): 73.9 ± 6.2 ms
QTc (ECG, Bazett) ([3]; 0 min (initial values)): 172.4 ± 13.5 ms
Beats/min (ECG) ([3]; 5 min): 306.9 ± 9.0 Beats/min
PQ (ECG) ([3]; 5 min): 61.5 ± 6.3 ms
QRS (ECG) ([3]; 5 min): 30.4 ± 3.2 ms
QT (ECG) ([3]; 5 min): 77.0 ± 7.0 ms
QTc (ECG, Bazett) ([3]; 5 min): 174.2 ± 16.3 ms
Beats/min (ECG) ([3]; 10 min): 298.7 ± 8.9 Beats/min
PQ (ECG) ([3]; 10 min): 57.4 ± 4.2 ms
QRS (ECG) ([3]; 10 min): 30.8 ± 3.6 ms
QT (ECG) ([3]; 10 min): 77.7 ± 4.9 ms
QTc (ECG, Bazett) ([3]; 10 min): 173.4 ± 11.7 ms
Beats/min (ECG) ([3]; 15 min): 284.7 ± 7.6^a Beats/min
PQ (ECG) ([3]; 15 min): 55.8 ± 1.6 ms
QRS (ECG) ([3]; 15 min): 27.0 ± 2.9 ms
QT (ECG) ([3]; 15 min): 76.1 ± 5.8 ms
QTc (ECG, Bazett) ([3]; 15 min): 166.4 ± 14.5 ms
Beats/min (ECG) ([3]; 20 min): 273.9 ± 8.0^b Beats/min
PQ (ECG) ([3]; 20 min): 51.9 ± 3.8 ms
QRS (ECG) ([3]; 20 min): 29.1 ± 2.7 ms
QT (ECG) ([3]; 20 min): 77.9 ± 4.2 ms
QTc (ECG, Bazett) ([3]; 20 min): 166.9 ± 11.1 ms
Beats/min (ECG) ([3]; 30 min): 267.4 ± 17.5^c Beats/min
PQ (ECG) ([3]; 30 min): 56.9 ± 3.5 ms
QRS (ECG) ([3]; 30 min): 28.5 ± 2.8 ms
QT (ECG) ([3]; 30 min): 75.3 ± 3.2 ms
QTc (ECG, Bazett) ([3]; 30 min): 159.0 ± 9.7 ms
Beats/min (ECG) ([3]; 40 min): 260.3 ± 22.8^c Beats/min
PQ (ECG) ([3]; 40 min): 57.4 ± 3.1 ms
QRS (ECG) ([3]; 40 min): 28.6 ± 2.8 ms
QT (ECG) ([3]; 40 min): 76.9 ± 4.9 ms
QTc (ECG, Bazett) ([3]; 40 min): 160.4 ± 14.4 ms
Beats/min (ECG) ([3]; 50 min): 258.9 ± 25.4^c Beats/min
PQ (ECG) ([3]; 50 min): 59.0 ± 3.8 ms
QRS (ECG) ([3]; 50 min): 27.6 ± 3.0 ms
QT (ECG) ([3]; 50 min): 76.0 ± 2.9 ms
QTc (ECG, Bazett) ([3]; 50 min): 157.2 ± 9.9 ms
Beats/min (ECG) ([3]; 60 min): 252.3 ± 25.1^c Beats/min
PQ (ECG) ([3]; 60 min): 59.6 ± 4.7 ms
QRS (ECG) ([3]; 60 min): 30.9 ± 3.8 ms
QT (ECG) ([3]; 60 min): 76.7 ± 3.5 ms
QTc (ECG, Bazett) ([3]; 60 min): 157.1 ± 12.0 ms
therapeutic antiarrhythmic activity (premature ventricular contractions) [4]: restored normal heart rhythm

COc1ccccc1N1CCN(CCCOc2cc(C)cc(C)c2C)CC1 [HBK-19, 1N-[3-(2,3,5-trimethylphenoxy)propyl]-4N-(2-methoxyphenyl)piperazine hydrochloride]
Diastolic pressure ([1]; 5 min): 94.5 ± 2.6
Systolic pressure ([1]; 5 min): 121.0 ± 4.0^b
Diastolic pressure ([1]; 10 min): 87.5 ± 0.4^c
Systolic pressure ([1]; 10 min): 116.0 ± 3.5^c
Diastolic pressure ([1]; 20 min): 89.0 ± 2.3^b
Systolic pressure ([1]; 20 min): 111.5 ± 3.2^c
Diastolic pressure ([1]; 30 min): 87.0 ± 2.9^c
Systolic pressure ([1]; 30 min): 110.0 ± 2.3^c
Diastolic pressure ([1]; 40 min): 84.5 ± 1.4^c
Systolic pressure ([1]; 40 min): 107.5 ± 3.2^c
Diastolic pressure ([1]; 50 min): 83.5 ± 1.4^c
Systolic pressure ([1]; 50 min): 106.0 ± 3.5^c
Diastolic pressure ([1]; 60 min): 84.0 ± 0.6^c
Systolic pressure ([1]; 60 min): 106.0 ± 4.0^c
Diastolic pressure [1, 5]: 98.0 ± 4.6
Systolic pressure [1, 5]: 127.0 ± 4.0
lowest hypotensive dose [1]: 0.625 mg/kg
reduction of diastolic blood pressure [1]: 9−15%
reduction of systolic blood pressure [1]: 5−17%
Schild slope ± S.E.M., α1B [2]: 1.06 ± 0.05
Kb [2]: 8.51 nM
influence on ECG parameters (PQ interval, QRS complex, QTc interval) [3]: without the influence on PQ interval, QRS complex, or QTc interval
reduction of heart rate [3]: 21−22%
Beats/min (ECG) ([3]; 0 min (initial values)): 355.3 ± 19.7 Beats/min
PQ (ECG) ([3]; 0 min (initial values)): 56.7 ± 0.7 ms
QRS (ECG) ([3]; 0 min (initial values)): 35.7 ± 1.0 ms
QT (ECG) ([3]; 0 min (initial values)): 76.4 ± 8.2 ms
QTc (ECG, Bazett) ([3]; 0 min (initial values)): 186.9 ± 24.6 ms
Beats/min (ECG) ([3]; 5 min): 349.7 ± 25.3 Beats/min
PQ (ECG) ([3]; 5 min): 56.6 ± 0.0 ms
QRS (ECG) ([3]; 5 min): 34.7 ± 1.6 ms
QT (ECG) ([3]; 5 min): 76.9 ± 1.1 ms
QTc (ECG, Bazett) ([3]; 5 min): 185.5 ± 9.5 ms
Beats/min (ECG) ([3]; 10 min): 339.1 ± 21.0 Beats/min
PQ (ECG) ([3]; 10 min): 56.0 ± 0.0 ms
QRS (ECG) ([3]; 10 min): 34.0 ± 0.3 ms
QT (ECG) ([3]; 10 min): 77.5 ± 0.5 ms
QTc (ECG, Bazett) ([3]; 10 min): 184.2 ± 6.9 ms
Beats/min (ECG) ([3]; 15 min): 280.1 ± 1.1^c Beats/min
PQ (ECG) ([3]; 15 min): 58.2 ± 1.8 ms
QRS (ECG) ([3]; 15 min): 32.0 ± 1.2 ms
QT (ECG) ([3]; 15 min): 82.2 ± 2.2 ms
QTc (ECG, Bazett) ([3]; 15 min): 177.6 ± 4.4 ms
Beats/min (ECG) ([3]; 20 min): 277.2 ± 5.0^c Beats/min
PQ (ECG) ([3]; 20 min): 60.1 ± 1.3 ms
QRS (ECG) ([3]; 20 min): 32.7 ± 0.4 ms
QT (ECG) ([3]; 20 min): 84.3 ± 1.1 ms
QTc (ECG, Bazett) ([3]; 20 min): 181.1 ± 4.1 ms
Beats/min (ECG) ([3]; 30 min): 278.2 ± 6.7^c Beats/min
PQ (ECG) ([3]; 30 min): 60.1 ± 1.7 ms
QRS (ECG) ([3]; 30 min): 34.3 ± 0.2 ms
QT (ECG) ([3]; 30 min): 82.2 ± 0.4 ms
QTc (ECG, Bazett) ([3]; 30 min): 177.0 ± 3.0 ms
Beats/min (ECG) ([3]; 40 min): 332.8 ± 18.9 Beats/min
PQ (ECG) ([3]; 40 min): 59.3 ± 0.7 ms
QRS (ECG) ([3]; 40 min): 32.0 ± 3.1 ms
QT (ECG) ([3]; 40 min): 81.5 ± 2.5 ms
QTc (ECG, Bazett) ([3]; 40 min): 192.2 ± 11.2 ms
Beats/min (ECG) ([3]; 50 min): 396.8 ± 31.8 Beats/min
PQ (ECG) ([3]; 50 min): 55.1 ± 0.3 ms
QRS (ECG) ([3]; 50 min): 36.0 ± 1.5 ms
QT (ECG) ([3]; 50 min): 76.5 ± 0.5 ms
QTc (ECG, Bazett) ([3]; 50 min): 196.2 ± 6.9 ms
Beats/min (ECG) ([3]; 60 min): 398.0 ± 32.4 Beats/min
PQ (ECG) ([3]; 60 min): 56.3 ± 1.1 ms
QRS (ECG) ([3]; 60 min): 30.3 ± 1.1 ms
QT (ECG) ([3]; 60 min): 80.2 ± 0.4 ms
QTc (ECG, Bazett) ([3]; 60 min): 206.3 ± 9.6 ms
therapeutic antiarrhythmic activity (premature ventricular contractions) [4]: restored normal heart rhythm
